Experiments:
human topo IIα [1] = molecular target: T1, human topo IIα (Homo sapiens, UniProt P11388); assay: HTS relaxation assay of human topo IIα; assay type: biochemical
T1 construct: purchased Inspiralis (Norwich, U.K.)

Solubility observations = assay type: physicochemical; settings: 500 μM; erratic readings
human topo IIα [2] = molecular target: T1, human topo IIα; assay: Human topoisomerase II competitive ATPase assay; assay type: biochemical
Description: The human topo competitive ATPase assay was executed at Inspiralis (Norwich, U.K.). The compound was analyzed using a kinase/lactate dehydrogenase assay as described above.
A mixture of the assay buffer (20 mM Tris–HCl, 5 mM magnesium acetate, 125 mM potassium acetate, 2 mM DTT, pH 7.9), linear pBR322 (1.5 μL of 1 mg/mL per assay), phosphoenol pyruvate (0.5 μL of 80 mM per assay), pyruvate kinase/lactate dehydrogenase mix (0.75 μL per assay), NADH (1 μL of 20 mM per assay), DMSO (1.5 μL per assay), and water (32.85 μL per assay) was prepared. This mixture (41.1 μL) was put into the wells of a 384-well microtiter plate. DMSO (0.5 μL) or the diluted investigated compound in the DMSO was added to the wells and mixed. Subsequently, 5 μL of the dilution buffer or human topo IIα (12 nM final concentration) was added and mixed. Before the run, a prerun was done where we added 3.4 μL of the appropriate concentration of ATP and monitored the OD340 for up to 35 min. The assay temperature was 37 °C. Two negative controls (4% DMSO and dilution buffer without enzyme) were used in the presence of 2 mM ATP. The ATP concentrations in this assay were 0.025, 0.05, 0.075, 0.1, 0.25, 0.5, 0.75, and 1 mM. The assays were executed in duplicate at 3.9, 31, 50, 75, and 100 μM final concentrations of the investigated compound 1. DMSO has a final concentration of 4% (v/v) in all of the reactions.
8. Human topoisomerase II ATPase assays at different concentration of the ATP – Competitive ATPase assay
The spectrophotometer produces an output as change in OD340 with time (data not shown).
The data from the runs after the addition of the ATP were plotted after adjusting the starting OD340 to zero. Lines are fitted to these by linear regression and the rates (OD change/min) calculated. The rates for each ATP and inhibitor concentration were then calculated as μM ATP hydrolysed/min using an extinction coefficient of 6.22 M-1 cm-1 and a path length of 0.5 cm. The rates were then plotted against the ATP concentration and curves fitted to the data using the hyperbolic equation y=(ax/(b+x) where y = rate, x = [ATP], a = Vmax and b=Km.
Using the equation y=y0+(ax/(b+x)) it was possible to solve it and obtain values. […]
concentrations after subtraction of the background rate and calculated Km (mM ATP) and Vmax (μM ATP/min) values. They were calculated from equation y = (ax /(b+x) where y = rate, x = [ATP], a = Vmax.
Rates for controls without enzyme in the presence of 2 mM ATP (μmol/min) […]
Rates (μmol/min) at different ATP concentrations (mM) after subtraction of background […]
Calculated Km (mM ATP) and Vmax (μM ATP/min) values

human topo IIα [3] = molecular target: T1, human topo IIα; assay: Human topo IIα-mediated kDNA decatenation assay; assay type: biochemical
Description: (§1) We made use of the human topo II decatenation assay kit from Inspiralis (Norwich, U.K.) to assess the ability of selected compounds to impede DNA decatenation.[89],[90] It was performed for topo IIα and topo IIβ isoforms using the protocol as described previously.[35]

HepG2 cells = assay: Cell cycle analysis by flow cytometry; assay type: cell-based, human; settings: 24 h
[4] = molecular target: T2, human topo IIα ATPase domain (Homo sapiens, UniProt P11388); assay: Microscale thermophoresis (MST) binding; settings: truncated human topo IIα ATPase domain; three independent runs
T2 construct: the ATPase domain of human topo IIα with 1–453 amino acid residues; purchased Inspiralis
T2 sequence (P11388 1-453): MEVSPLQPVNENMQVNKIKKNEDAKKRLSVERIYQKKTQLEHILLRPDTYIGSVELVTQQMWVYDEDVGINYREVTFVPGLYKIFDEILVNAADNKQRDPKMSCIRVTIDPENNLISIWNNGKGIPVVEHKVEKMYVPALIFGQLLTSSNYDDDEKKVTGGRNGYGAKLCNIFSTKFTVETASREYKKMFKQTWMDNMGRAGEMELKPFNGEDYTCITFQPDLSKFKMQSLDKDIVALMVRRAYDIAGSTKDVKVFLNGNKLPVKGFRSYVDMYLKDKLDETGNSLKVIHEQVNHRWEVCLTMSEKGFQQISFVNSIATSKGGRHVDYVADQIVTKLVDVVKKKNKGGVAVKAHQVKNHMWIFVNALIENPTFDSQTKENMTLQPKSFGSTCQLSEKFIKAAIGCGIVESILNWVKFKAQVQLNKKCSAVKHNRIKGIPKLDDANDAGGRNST

human topo IIα [5] = molecular target: T1, human topo IIα; assay: ATPase activity (ATP hydrolysis) assay, pyruvate kinase/lactate dehydrogenase coupled; assay type: biochemical
human topo IIβ = molecular target: T3, human topo IIβ (Homo sapiens, UniProt Q02880); assay: Human topo IIβ-mediated kDNA decatenation assay; assay type: biochemical
T3 construct: purchased Inspiralis (Norwich, U.K.)
T3 sequence (Q02880 whole entry): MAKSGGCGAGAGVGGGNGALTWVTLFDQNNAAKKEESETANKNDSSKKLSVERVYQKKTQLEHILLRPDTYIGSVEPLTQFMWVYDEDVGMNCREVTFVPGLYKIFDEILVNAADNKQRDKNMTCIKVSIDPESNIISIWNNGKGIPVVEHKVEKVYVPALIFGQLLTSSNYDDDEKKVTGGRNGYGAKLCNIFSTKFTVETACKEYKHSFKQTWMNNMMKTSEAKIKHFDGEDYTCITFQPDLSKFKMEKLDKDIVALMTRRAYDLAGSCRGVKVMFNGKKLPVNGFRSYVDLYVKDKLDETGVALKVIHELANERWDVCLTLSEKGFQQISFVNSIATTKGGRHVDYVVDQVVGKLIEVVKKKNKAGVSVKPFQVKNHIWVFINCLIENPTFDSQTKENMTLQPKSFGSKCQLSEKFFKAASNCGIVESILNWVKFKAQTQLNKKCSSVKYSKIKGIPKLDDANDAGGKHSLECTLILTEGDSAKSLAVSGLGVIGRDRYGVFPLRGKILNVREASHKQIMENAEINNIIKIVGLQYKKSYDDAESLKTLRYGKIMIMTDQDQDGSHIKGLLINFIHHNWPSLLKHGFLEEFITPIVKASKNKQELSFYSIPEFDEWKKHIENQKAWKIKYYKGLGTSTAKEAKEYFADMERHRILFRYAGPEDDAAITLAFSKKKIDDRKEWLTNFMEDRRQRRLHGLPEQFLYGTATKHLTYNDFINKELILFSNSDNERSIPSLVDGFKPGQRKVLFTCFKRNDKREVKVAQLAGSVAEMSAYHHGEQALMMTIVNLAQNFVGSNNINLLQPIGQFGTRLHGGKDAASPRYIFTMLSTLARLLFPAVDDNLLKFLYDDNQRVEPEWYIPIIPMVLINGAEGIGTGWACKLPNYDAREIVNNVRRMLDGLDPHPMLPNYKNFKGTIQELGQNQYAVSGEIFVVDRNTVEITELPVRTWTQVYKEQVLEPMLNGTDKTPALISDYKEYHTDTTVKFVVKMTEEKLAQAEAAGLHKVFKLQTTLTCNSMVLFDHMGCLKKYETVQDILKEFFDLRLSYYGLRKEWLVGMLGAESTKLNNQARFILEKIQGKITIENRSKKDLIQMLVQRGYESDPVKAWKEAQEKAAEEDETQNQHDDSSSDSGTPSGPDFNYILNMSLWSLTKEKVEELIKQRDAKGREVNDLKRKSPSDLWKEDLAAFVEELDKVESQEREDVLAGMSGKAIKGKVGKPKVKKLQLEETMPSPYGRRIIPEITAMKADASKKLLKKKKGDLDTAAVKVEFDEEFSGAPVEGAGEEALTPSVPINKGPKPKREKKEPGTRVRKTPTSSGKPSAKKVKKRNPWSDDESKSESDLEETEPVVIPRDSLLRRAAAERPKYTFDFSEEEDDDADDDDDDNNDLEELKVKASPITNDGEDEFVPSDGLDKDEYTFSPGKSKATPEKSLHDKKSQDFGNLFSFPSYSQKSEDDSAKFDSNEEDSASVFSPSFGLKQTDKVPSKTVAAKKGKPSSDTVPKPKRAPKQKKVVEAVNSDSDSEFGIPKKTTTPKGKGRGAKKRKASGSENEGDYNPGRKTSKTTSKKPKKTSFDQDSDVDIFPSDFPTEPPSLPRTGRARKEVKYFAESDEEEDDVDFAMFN
Description: We were also interested in whether compounds can act on both isoforms of the human topo II. Thus, we performed human topo IIβ decatenation assays for compounds 1 and 9. […] (see also Tables S5 and S6 for more details).
as §1

[6] = 500 μM (compound 1: solubility problems, erratic readings)

T1 sequence (P11388 whole entry): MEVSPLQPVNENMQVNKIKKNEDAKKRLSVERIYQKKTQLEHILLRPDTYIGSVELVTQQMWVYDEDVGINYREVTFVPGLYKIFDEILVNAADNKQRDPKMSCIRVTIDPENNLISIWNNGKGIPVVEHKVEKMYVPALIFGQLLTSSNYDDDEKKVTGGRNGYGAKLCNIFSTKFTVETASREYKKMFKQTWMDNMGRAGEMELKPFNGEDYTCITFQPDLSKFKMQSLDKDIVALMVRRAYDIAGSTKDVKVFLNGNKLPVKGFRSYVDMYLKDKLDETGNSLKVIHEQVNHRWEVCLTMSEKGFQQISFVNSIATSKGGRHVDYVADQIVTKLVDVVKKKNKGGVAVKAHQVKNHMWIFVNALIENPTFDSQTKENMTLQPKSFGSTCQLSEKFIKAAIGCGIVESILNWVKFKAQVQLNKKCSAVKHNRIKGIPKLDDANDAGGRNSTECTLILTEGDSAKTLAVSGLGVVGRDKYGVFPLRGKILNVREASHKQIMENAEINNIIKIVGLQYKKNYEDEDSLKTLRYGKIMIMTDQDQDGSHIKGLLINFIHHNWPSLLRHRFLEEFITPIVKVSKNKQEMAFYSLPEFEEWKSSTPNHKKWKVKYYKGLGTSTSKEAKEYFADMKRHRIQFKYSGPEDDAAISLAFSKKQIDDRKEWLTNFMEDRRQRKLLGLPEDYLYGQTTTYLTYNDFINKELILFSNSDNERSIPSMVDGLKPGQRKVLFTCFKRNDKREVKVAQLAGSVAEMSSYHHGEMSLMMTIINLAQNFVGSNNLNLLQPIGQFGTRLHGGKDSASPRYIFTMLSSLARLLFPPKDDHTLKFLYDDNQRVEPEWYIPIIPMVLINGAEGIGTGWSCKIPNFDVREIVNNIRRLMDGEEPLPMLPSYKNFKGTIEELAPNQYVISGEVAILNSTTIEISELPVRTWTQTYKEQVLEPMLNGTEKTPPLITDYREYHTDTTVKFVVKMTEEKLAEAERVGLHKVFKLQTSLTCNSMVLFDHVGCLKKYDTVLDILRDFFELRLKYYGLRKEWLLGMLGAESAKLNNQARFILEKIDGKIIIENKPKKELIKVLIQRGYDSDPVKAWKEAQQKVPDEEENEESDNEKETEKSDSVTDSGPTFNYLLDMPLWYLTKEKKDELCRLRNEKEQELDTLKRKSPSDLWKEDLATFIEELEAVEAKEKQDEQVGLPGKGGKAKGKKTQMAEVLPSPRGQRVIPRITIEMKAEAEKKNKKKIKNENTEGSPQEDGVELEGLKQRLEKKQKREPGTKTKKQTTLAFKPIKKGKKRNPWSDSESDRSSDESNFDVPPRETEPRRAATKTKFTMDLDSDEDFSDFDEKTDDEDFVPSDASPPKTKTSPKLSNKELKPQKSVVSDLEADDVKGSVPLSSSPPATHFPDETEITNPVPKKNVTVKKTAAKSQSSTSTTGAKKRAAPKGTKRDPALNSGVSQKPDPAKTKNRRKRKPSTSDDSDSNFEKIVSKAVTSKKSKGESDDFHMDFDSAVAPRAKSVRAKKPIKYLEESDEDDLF

Cc1nc(N)sc1-c1csc(Nc2ccc(C(F)(F)F)cc2)n1 [Compound 1]
IC50 (human topo IIα [1]): 33.4 µM
solubility in the ATPase assay (Solubility observations): solubility problems
IC50 (human topo IIα [2]; ATP 0.025 (mM per method), fit R^2 0.474, read-out: IC50 at c(ATP) 0.025): 0.0038 mM
IC50 (human topo IIα [2]; ATP 0.05 (mM per method), read-out: IC50 at c(ATP) 0.05): 0.0088 mM
IC50 (human topo IIα [2]; ATP 0.075 (mM per method), read-out: IC50 at c(ATP) 0.075): 0.0148 mM
IC50 (human topo IIα [2]; ATP 0.1 (mM per method), read-out: IC50 at c(ATP) 0.1): 0.0094 mM
IC50 (human topo IIα [2]; ATP 0.25 (mM per method), read-out: IC50 at c(ATP) 0.25): 0.0183 mM
IC50 (human topo IIα [2]; ATP 0.5 (mM per method), read-out: IC50 at c(ATP) 0.5): 0.0152 mM
IC50 (human topo IIα [2]; ATP 0.75 (mM per method), read-out: IC50 at c(ATP) 0.75): 0.0178 mM
IC50 (human topo IIα [2]; ATP 1 (mM per method), read-out: IC50 at c(ATP) 1): 0.0216 mM
IC50 (human topo IIα [2]; ATP 2 (mM per method), read-out: IC50 at c(ATP) 2): 0.0254 mM
Calculated Vmax (human topo IIα [2]; compound 3.9 μM): 2.97 μM ATP/min
Rate of ATP hydrolysis after subtraction of background (human topo IIα [2]; compound 3.9 μM, ATP 0.025 mM): 0.064 µmol/min
Rate of ATP hydrolysis after subtraction of background (human topo IIα [2]; compound 3.9 μM, ATP 0.05 mM): 0.257 µmol/min
Rate of ATP hydrolysis after subtraction of background (human topo IIα [2]; compound 3.9 μM, ATP 0.075 mM): 0.354 µmol/min
Rate of ATP hydrolysis after subtraction of background (human topo IIα [2]; compound 3.9 μM, ATP 0.1 mM): 0.450 µmol/min
Rate of ATP hydrolysis after subtraction of background (human topo IIα [2]; compound 3.9 μM, ATP 0.25 mM): 1.158 µmol/min
Rate of ATP hydrolysis after subtraction of background (human topo IIα [2]; compound 3.9 μM, ATP 0.5 mM): 1.479 µmol/min
Rate of ATP hydrolysis after subtraction of background (human topo IIα [2]; compound 3.9 μM, ATP 0.75 mM): 1.801 µmol/min
Rate of ATP hydrolysis after subtraction of background (human topo IIα [2]; compound 3.9 μM, ATP 1 mM): 1.897 µmol/min
Rate of ATP hydrolysis after subtraction of background (human topo IIα [2]; compound 3.9 μM, ATP 2 mM): 2.444 µmol/min
Calculated Vmax (human topo IIα [2]; compound 31 μM): 1.9 μM ATP/min
Rate of ATP hydrolysis after subtraction of background (human topo IIα [2]; compound 31 μM, ATP 0.05 mM): 0.032 µmol/min
Rate of ATP hydrolysis after subtraction of background (human topo IIα [2]; compound 31 μM, ATP 0.075 mM): 0.096 µmol/min
Rate of ATP hydrolysis after subtraction of background (human topo IIα [2]; compound 31 μM, ATP 0.1 mM): 0.161 µmol/min
Rate of ATP hydrolysis after subtraction of background (human topo IIα [2]; compound 31 μM, ATP 0.25 mM): 0.450 µmol/min
Rate of ATP hydrolysis after subtraction of background (human topo IIα [2]; compound 31 μM, ATP 0.5 mM): 0.707 µmol/min
Rate of ATP hydrolysis after subtraction of background (human topo IIα [2]; compound 31 μM, ATP 0.75 mM): 0.868 µmol/min
Rate of ATP hydrolysis after subtraction of background (human topo IIα [2]; compound 31 μM, ATP 1 mM): 1.061 µmol/min
Rate of ATP hydrolysis after subtraction of background (human topo IIα [2]; compound 31 μM, ATP 2 mM): 1.286 µmol/min
Calculated Vmax (human topo IIα [2]; compound 50 μM): 2.77 μM ATP/min
Rate of ATP hydrolysis after subtraction of background (human topo IIα [2]; compound 50 μM, ATP 0.025 mM): 0.000 µmol/min
Rate of ATP hydrolysis after subtraction of background (human topo IIα [2]; compound 50 μM, ATP 0.05 mM): 0.096 µmol/min
Rate of ATP hydrolysis after subtraction of background (human topo IIα [2]; compound 50 μM, ATP 0.075 mM): 0.129 µmol/min
Rate of ATP hydrolysis after subtraction of background (human topo IIα [2]; compound 50 μM, ATP 0.1 mM): 0.032 µmol/min
Rate of ATP hydrolysis after subtraction of background (human topo IIα [2]; compound 50 μM, ATP 0.25 mM): 0.193 µmol/min
Rate of ATP hydrolysis after subtraction of background (human topo IIα [2]; compound 50 μM, ATP 0.5 mM): 0.450 µmol/min
Rate of ATP hydrolysis after subtraction of background (human topo IIα [2]; compound 50 μM, ATP 0.75 mM): 0.707 µmol/min
Rate of ATP hydrolysis after subtraction of background (human topo IIα [2]; compound 50 μM, ATP 1 mM): 0.772 µmol/min
Rate of ATP hydrolysis after subtraction of background (human topo IIα [2]; compound 50 μM, ATP 2 mM): 1.222 µmol/min
Calculated Vmax (human topo IIα [2]; compound 75 μM): 1.94 μM ATP/min
Rate of ATP hydrolysis after subtraction of background (human topo IIα [2]; compound 75 μM, ATP 0.025 mM): 0.096 µmol/min
Rate of ATP hydrolysis after subtraction of background (human topo IIα [2]; compound 75 μM, ATP 0.05 mM): 0.032 µmol/min
Rate of ATP hydrolysis after subtraction of background (human topo IIα [2]; compound 75 μM, ATP 0.1 mM): 0.064 µmol/min
Rate of ATP hydrolysis after subtraction of background (human topo IIα [2]; compound 75 μM, ATP 0.25 mM): 0.225 µmol/min
Rate of ATP hydrolysis after subtraction of background (human topo IIα [2]; compound 75 μM, ATP 0.5 mM): 0.322 µmol/min
Rate of ATP hydrolysis after subtraction of background (human topo IIα [2]; compound 75 μM, ATP 0.75 mM): 0.386 µmol/min
Rate of ATP hydrolysis after subtraction of background (human topo IIα [2]; compound 75 μM, ATP 1 mM): 0.354 µmol/min
Rate of ATP hydrolysis after subtraction of background (human topo IIα [2]; compound 75 μM, ATP 2 mM): 0.740 µmol/min
Calculated Vmax (human topo IIα [2]; compound 100 μM): 3.07 μM ATP/min
Rate of ATP hydrolysis after subtraction of background (human topo IIα [2]; compound 100 μM, ATP 0.025 mM): 0.064 µmol/min
Rate of ATP hydrolysis after subtraction of background (human topo IIα [2]; compound 100 μM, ATP 0.05 mM): 0.032 µmol/min
Rate of ATP hydrolysis after subtraction of background (human topo IIα [2]; compound 100 μM, ATP 0.075 mM): 0.000 µmol/min
Rate of ATP hydrolysis after subtraction of background (human topo IIα [2]; compound 100 μM, ATP 0.1 mM): 0.032 µmol/min
Rate of ATP hydrolysis after subtraction of background (human topo IIα [2]; compound 100 μM, ATP 0.25 mM): 0.064 µmol/min
Rate of ATP hydrolysis after subtraction of background (human topo IIα [2]; compound 100 μM, ATP 0.5 mM): 0.418 µmol/min
Rate of ATP hydrolysis after subtraction of background (human topo IIα [2]; compound 100 μM, ATP 0.75 mM): 0.289 µmol/min
Rate of ATP hydrolysis after subtraction of background (human topo IIα [2]; compound 100 μM, ATP 1 mM): 0.354 µmol/min
Rate of ATP hydrolysis after subtraction of background (human topo IIα [2]; compound 100 μM, ATP 2 mM): 0.772 µmol/min
% Decatenated Average (human topo IIα [3]; 31.5 μM): 80.9%
inhibition of decatenation (human topo IIα [3]; 125 μM): complete inhibition
inhibition of decatenation (human topo IIα [3]; 500 μM): complete inhibition
cell cycle arrest (in words) (HepG2 cells): cell cycle arrest in the G1 phase
Kd [4]: 50.6 ± 7.6 µM
Percentage ATPase activity Run 1 (human topo IIα [5]; 3.9 μM): 92.25%
Percentage ATPase activity Run 2 (human topo IIα [5]; 3.9 μM): 88.37%
Percentage ATPase activity Run 1 (human topo IIα [5]; 31.5 μM): 96.12%
Percentage ATPase activity Run 2 (human topo IIα [5]; 31.5 μM): 94.57%
Percentage ATPase activity Run 1 (human topo IIα [5]; 125 μM): 24.81%
Percentage ATPase activity Run 2 (human topo IIα [5]; 125 μM): 16.28%
inhibition of topo IIα-mediated ATP hydrolysis (in words) (human topo IIα [5]; 125 μM): almost fully inhibited
Percentage ATPase activity Run 1 (human topo IIα [5]; [6]): 65.12%
Percentage ATPase activity Run 2 (human topo IIα [5]; [6]): 36.43%
inhibition of decatenation (human topo IIβ; 125 μM): completely inhibited
inhibition of decatenation (human topo IIβ; 500 μM): completely inhibited
